Activity calls are given as the source filed them. The calls are words filed in the database; no cut-off is given here.
Tests used:
HUVEC [1] = test: Antiangiogenic activity against HUVEC assessed as reduction in tube formation at 0.05 uM after 6 hrs by matrigel based phase contrast microscopic analysis; assay type: functional, Homo sapiens; set-up: scale not given: the % may be the effect or the level left
[2] = target: Epidermal growth factor receptor (Homo sapiens, UniProt P00533); test: Inhibition of EGFR (unknown origin)
Chain of Epidermal growth factor receptor (P00533 whole entry): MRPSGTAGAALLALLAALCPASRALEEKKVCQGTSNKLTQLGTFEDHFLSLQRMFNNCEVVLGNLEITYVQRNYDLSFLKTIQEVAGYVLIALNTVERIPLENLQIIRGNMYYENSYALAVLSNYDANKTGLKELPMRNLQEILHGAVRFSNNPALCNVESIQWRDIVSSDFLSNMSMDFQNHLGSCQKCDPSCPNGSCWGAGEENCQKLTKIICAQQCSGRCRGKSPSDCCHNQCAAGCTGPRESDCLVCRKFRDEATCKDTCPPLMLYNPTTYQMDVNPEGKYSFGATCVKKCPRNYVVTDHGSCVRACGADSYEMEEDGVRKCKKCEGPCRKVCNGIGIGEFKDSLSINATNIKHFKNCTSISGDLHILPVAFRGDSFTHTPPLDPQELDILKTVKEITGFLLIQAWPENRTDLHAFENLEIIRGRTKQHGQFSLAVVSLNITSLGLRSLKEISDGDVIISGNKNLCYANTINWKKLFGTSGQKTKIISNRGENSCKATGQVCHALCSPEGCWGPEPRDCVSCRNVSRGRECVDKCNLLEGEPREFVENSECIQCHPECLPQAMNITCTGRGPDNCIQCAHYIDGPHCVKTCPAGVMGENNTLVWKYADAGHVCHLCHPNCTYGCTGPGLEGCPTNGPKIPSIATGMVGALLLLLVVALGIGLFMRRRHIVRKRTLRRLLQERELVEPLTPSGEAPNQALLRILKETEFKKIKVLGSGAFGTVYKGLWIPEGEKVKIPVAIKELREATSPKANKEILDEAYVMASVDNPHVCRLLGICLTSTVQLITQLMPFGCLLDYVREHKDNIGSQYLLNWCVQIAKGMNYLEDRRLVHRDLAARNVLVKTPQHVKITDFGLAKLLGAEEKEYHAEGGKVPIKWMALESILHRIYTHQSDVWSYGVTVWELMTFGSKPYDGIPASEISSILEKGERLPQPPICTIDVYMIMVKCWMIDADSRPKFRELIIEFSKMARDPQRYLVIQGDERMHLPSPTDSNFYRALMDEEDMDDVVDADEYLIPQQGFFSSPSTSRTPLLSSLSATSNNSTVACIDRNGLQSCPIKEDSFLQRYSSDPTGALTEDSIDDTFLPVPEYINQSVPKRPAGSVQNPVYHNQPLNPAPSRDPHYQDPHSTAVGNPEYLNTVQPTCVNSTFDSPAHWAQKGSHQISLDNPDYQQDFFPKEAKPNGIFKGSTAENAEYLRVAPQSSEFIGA

[3] = target: T1, Receptor-type tyrosine-protein kinase FLT3 (Homo sapiens, UniProt P36888); test: Inhibition of FLT3 (unknown origin)
T1 sequence (P36888 whole entry): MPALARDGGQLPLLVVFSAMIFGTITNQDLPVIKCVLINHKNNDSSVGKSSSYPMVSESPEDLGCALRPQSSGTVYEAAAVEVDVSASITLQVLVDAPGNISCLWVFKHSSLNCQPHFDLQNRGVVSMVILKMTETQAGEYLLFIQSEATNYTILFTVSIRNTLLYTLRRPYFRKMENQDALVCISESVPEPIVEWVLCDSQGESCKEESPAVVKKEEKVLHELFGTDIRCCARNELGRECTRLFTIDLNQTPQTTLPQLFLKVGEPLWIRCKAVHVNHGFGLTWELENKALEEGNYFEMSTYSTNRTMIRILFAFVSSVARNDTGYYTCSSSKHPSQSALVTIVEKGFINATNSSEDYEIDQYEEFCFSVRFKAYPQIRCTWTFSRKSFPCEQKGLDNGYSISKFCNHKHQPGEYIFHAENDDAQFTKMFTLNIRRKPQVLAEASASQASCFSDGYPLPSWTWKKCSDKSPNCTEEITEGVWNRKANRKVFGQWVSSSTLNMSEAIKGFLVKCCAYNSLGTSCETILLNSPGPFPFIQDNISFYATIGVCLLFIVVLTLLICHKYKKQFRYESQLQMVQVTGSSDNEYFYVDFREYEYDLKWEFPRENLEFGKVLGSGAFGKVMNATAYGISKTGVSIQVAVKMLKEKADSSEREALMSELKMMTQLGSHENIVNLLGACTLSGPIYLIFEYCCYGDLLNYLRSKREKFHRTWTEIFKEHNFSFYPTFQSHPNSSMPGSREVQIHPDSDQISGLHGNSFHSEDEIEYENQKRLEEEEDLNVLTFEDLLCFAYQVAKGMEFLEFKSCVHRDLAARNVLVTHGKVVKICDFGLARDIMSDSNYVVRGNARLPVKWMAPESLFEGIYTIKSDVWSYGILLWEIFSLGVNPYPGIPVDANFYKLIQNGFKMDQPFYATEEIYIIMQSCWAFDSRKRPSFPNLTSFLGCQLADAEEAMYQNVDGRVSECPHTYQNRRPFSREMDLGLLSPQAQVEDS

[4] = target: Mast/stem cell growth factor receptor Kit (Homo sapiens, UniProt P10721); test: Inhibition of c-KIT (unknown origin)
Chain of Mast/stem cell growth factor receptor Kit (P10721 whole entry): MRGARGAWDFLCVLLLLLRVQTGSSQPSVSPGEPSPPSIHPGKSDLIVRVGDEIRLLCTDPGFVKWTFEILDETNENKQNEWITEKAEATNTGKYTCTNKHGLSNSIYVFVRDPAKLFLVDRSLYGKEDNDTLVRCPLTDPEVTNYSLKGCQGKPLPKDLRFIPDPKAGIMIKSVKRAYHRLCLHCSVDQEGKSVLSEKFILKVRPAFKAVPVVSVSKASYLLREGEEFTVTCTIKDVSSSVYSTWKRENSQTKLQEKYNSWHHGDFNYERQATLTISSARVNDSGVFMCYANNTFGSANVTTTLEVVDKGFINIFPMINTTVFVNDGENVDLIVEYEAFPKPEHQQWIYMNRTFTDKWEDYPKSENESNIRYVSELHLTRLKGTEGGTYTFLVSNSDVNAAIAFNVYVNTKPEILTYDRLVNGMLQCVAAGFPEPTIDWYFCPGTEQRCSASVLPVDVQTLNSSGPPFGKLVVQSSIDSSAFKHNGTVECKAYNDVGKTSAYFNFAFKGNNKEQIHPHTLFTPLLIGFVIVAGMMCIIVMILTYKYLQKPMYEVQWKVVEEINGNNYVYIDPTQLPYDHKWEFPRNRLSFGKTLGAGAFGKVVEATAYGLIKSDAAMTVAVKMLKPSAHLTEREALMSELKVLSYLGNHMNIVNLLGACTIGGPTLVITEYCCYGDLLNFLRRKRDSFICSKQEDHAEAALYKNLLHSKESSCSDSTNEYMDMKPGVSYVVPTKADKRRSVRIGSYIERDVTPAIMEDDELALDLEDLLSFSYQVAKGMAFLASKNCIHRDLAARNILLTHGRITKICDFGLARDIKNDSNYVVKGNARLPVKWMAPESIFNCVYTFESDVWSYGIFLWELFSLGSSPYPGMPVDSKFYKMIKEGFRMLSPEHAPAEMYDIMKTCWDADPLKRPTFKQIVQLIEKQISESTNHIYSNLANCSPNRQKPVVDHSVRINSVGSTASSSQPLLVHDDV

[5] = target: Vascular endothelial growth factor receptor 2 (Homo sapiens, UniProt P35968); test: Inhibition of VEGFR2 (unknown origin) using FAM-labelled peptide as substrate pretreated for 10 mins followed by substrate addition measured after 30 mins by caliper mobility shift assay
Chain of Vascular endothelial growth factor receptor 2 (P35968 whole entry): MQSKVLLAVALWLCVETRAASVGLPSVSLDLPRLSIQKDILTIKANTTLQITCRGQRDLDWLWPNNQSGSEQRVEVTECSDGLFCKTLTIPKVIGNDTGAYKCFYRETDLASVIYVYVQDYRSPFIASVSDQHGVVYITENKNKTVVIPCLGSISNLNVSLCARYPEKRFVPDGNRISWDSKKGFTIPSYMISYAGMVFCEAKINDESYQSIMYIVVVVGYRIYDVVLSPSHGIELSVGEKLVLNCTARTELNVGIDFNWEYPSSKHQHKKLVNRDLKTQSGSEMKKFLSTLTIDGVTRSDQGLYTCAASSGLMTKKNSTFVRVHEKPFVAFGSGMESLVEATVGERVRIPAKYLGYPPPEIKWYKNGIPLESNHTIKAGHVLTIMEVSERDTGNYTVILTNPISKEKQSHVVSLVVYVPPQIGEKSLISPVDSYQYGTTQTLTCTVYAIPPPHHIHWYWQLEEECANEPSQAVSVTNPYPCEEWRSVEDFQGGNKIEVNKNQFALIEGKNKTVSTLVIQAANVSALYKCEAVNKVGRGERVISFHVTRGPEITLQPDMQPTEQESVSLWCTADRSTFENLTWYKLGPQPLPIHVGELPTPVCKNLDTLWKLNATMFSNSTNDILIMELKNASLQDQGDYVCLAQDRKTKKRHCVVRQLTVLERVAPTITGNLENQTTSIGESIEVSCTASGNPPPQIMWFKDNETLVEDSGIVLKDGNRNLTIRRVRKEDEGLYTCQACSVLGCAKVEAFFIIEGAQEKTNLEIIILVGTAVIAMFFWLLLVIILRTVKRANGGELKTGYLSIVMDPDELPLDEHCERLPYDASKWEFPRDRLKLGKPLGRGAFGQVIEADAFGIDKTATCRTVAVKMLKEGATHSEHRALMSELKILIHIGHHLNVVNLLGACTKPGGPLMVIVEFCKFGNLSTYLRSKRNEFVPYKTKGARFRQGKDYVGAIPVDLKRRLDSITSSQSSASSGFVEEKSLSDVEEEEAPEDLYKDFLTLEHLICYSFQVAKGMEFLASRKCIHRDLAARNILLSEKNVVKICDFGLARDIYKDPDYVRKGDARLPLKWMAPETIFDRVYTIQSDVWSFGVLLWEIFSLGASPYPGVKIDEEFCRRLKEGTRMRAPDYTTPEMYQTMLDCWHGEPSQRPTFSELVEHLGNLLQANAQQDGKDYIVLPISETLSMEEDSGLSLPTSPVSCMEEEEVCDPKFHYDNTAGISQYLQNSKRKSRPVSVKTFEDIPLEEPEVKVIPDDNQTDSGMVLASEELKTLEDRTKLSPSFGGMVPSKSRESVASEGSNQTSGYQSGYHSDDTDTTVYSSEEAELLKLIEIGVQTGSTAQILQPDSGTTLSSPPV

[6] = target: Serine/threonine-protein kinase B-raf (Homo sapiens, UniProt P15056, V600E); test: Inhibition of B-Raf V600E mutant (unknown origin) using MEK1 as substrate measured after 2 hrs by ELISA
Chain of Serine/threonine-protein kinase B-raf (Homo sapiens, UniProt P15056, V600E) (P15056 2-766 V600E limits assumed): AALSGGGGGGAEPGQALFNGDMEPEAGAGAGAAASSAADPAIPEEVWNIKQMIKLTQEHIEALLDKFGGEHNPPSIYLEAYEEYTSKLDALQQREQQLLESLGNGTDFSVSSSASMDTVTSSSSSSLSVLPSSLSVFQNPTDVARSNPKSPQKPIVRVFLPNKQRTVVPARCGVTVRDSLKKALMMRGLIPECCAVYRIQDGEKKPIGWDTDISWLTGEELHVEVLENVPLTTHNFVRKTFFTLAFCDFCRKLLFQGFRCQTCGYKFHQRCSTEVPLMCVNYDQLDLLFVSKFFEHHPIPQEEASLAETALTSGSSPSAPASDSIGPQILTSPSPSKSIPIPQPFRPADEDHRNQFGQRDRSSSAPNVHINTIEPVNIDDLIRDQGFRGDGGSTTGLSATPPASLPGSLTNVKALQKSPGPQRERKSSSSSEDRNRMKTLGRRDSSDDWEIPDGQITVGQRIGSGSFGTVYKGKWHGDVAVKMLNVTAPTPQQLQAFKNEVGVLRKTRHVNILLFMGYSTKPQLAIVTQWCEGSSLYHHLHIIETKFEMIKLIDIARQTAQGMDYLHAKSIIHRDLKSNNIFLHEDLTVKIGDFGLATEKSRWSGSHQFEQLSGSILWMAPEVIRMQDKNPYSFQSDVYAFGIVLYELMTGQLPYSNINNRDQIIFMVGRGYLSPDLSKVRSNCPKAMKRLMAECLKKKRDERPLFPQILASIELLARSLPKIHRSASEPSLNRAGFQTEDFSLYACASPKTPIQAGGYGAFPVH

HCT-116 = test: cells; conditions: Homo sapiens, HCT-116, 48 h
Description: Cytotoxicity against human HCT116 cells after 48 hrs by MTT assay

B16-BL6 = test: cells; conditions: Mus musculus, B16-BL6, 48 h
Description: Cytotoxicity against mouse B16-BL6 cells after 48 hrs by MTT assay

[7] = target: Serine/threonine-protein kinase B-raf (Homo sapiens, UniProt P15056); test: Inhibition of B-Raf (unknown origin) using MEK1 as substrate measured after 2 hrs by ELISA
Chain of Serine/threonine-protein kinase B-raf (Homo sapiens, UniProt P15056) (P15056 whole entry): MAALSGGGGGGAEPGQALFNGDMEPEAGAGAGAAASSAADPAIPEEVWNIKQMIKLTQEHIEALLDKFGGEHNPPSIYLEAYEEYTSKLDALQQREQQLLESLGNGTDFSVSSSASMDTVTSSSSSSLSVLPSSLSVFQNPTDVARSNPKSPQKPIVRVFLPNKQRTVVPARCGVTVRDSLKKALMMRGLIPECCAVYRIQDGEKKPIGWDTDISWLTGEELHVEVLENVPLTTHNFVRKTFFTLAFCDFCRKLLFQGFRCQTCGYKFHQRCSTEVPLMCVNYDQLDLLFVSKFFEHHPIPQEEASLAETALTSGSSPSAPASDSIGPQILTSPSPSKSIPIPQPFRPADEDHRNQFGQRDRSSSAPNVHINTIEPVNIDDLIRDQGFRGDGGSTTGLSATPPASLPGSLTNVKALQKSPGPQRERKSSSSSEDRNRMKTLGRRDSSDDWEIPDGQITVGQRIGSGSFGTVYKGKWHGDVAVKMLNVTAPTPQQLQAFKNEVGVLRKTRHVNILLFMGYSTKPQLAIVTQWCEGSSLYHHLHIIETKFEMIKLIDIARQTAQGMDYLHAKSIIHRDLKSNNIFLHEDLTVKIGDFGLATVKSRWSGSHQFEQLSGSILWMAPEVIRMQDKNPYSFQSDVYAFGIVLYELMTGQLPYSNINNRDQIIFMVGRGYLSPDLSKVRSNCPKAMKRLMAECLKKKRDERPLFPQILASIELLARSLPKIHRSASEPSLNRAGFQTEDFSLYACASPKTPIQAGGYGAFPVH

HUVEC [8] = test: Antiangiogenic activity against HUVEC assessed as reduction in tube formation at 0.1 uM after 6 hrs by matrigel based phase contrast microscopic analysis; assay type: functional, Homo sapiens; set-up: scale not given: the % may be the effect or the level left

| SMILES | Activity (HUVEC [1]) [%] | IC50 [2] [nM] | IC50 [3] [nM] | IC50 [4] [nM] | IC50 [5] [nM] | IC50 [6] [nM] | IC50 (HCT-116) [nM] | IC50 (B16-BL6) [nM] | IC50 [7] [nM] | Activity (HUVEC [1]; Homo sapiens) | Activity (HUVEC [8]) [%] |
| --- | --- | --- | --- | --- | --- | --- | --- | --- | --- | --- | --- |
| CNC(=O)c1ccc(Sc2cccc(NC(=S)Nc3ccc(Cl)c(C(F)(F)F)c3)c2)nc1 | 100 | 596 | 781 | > 1000 | 63 | 16 | 5180 | 19800 | 17 | – | – |
| CNC(=O)c1ccc(Sc2ccc(NC(=S)Nc3cc(C(F)(F)F)cc(C(F)(F)F)c3)cc2)nc1 | – | – | – | – | 277 | – | 16600 | 36100 | – | – | – |
| CNC(=O)c1ccc(Sc2ccc(NC(=O)Nc3cc(C(F)(F)F)cc(C(F)(F)F)c3)cc2)nc1 | – | – | – | – | 508 | 196 | 7090 | 45200 | 93 | – | – |
| CNC(=O)c1ccc(Sc2ccc(NC(=S)Nc3ccc(Cl)c(C(F)(F)F)c3)cc2)nc1 | 100 | > 1000 | 949 | 701 | 46 | 28 | 4900 | 23500 | 27 | – | – |
| CNC(=O)c1ccc(Sc2ccc(NC(=S)Nc3ccc(F)c(C(F)(F)F)c3)cc2)nc1 | – | – | – | – | 74 | 45 | 6370 | 29300 | 33 | – | – |
| CNC(=O)c1ccc(Sc2ccc(NC(=S)Nc3ccc(F)c(F)c3)cc2)nc1 | – | – | – | – | > 10000 | 892 | 22200 | 52600 | 810 | – | – |
| CNC(=O)c1ccc(Sc2cccc(NC(=S)Nc3ccc(Br)c(C(F)(F)F)c3)c2)nc1 | – | – | – | – | 133 | – | 16500 | > 100000 | – | – | – |
| CNC(=O)c1ccc(Sc2ccc(NC(=S)Nc3ccc(OC(F)(F)F)cc3)cc2)nc1 | – | – | – | – | > 10000 | > 10000 | > 100000 | > 100000 | 9870 | – | – |
| CNC(=O)c1ccc(Sc2cccc(NC(=S)Nc3ccc(Cl)cc3)c2)nc1 | – | – | – | – | 5990 | 857 | 39500 | 67500 | 791 | – | – |
| CNC(=O)c1ccc(Sc2cccc(NC(=S)Nc3ccc(OC(F)(F)F)cc3)c2)nc1 | – | – | – | – | > 10000 | 7480 | 24500 | 91000 | 5850 | – | – |
| CNC(=O)c1ccc(Sc2ccc(NC(=O)Nc3ccc(Cl)c(C(F)(F)F)c3)cc2)nc1 | 100 | > 1000 | 67 | 535 | 84 | 29 | 5290 | 24600 | 21 | – | – |
| CNC(=O)c1ccc(Sc2ccc(NC(=S)Nc3ccc(Cl)cc3)cc2)nc1 | – | – | – | – | 8660 | 1780 | 34500 | 69300 | 2060 | – | – |
| CNC(=O)c1cc(Oc2ccc(NC(=O)Nc3ccc(Cl)c(C(F)(F)F)c3)cc2)ccn1 [SORAFENIB] | – | – | – | – | – | – | – | 36500 | – | Active | 100 |
| CNC(=O)c1ccc(Sc2cccc(NC(=S)Nc3ccc(F)c(C(F)(F)F)c3)c2)nc1 | – | – | – | – | 61 | 77 | 18200 | 42400 | 69 | – | – |
| CNC(=O)c1ccc(Sc2cccc(NC(=S)Nc3cc(C(F)(F)F)cc(C(F)(F)F)c3)c2)nc1 | – | – | – | – | 887 | 169 | 5020 | 54200 | 158 | – | – |
| CNC(=O)c1ccc(Sc2ccc(NC(=S)Nc3cccc(C(F)(F)F)c3)cc2)nc1 | – | – | – | – | > 10000 | 571 | 25900 | 53100 | 503 | – | – |
| CNC(=O)c1ccc(Sc2ccc(NC(=O)Nc3ccc(F)c(C(F)(F)F)c3)cc2)nc1 | – | – | – | – | 102 | 65 | 5800 | 39600 | 48 | – | – |
| CNC(=O)c1ccc(Sc2cccc(NC(=S)Nc3ccc(F)c(Cl)c3)c2)nc1 | – | – | – | – | 4020 | 392 | 17300 | > 100000 | 280 | – | – |
| CNC(=O)c1ccc(Sc2cccc(NC(=S)Nc3cccc(C(F)(F)F)c3)c2)nc1 | – | – | – | – | 6910 | 1270 | 16100 | 19200 | 973 | – | – |
| CNC(=O)c1ccc(Sc2cccc(NC(=S)Nc3ccc(F)c(F)c3)c2)nc1 | – | – | – | – | 3860 | 539 | 35100 | 58200 | 442 | – | – |

Reference: ChEMBL document CHEMBL4219211, “Design and discovery of thioether and nicotinamide containing sorafenib analogues as multikinase inhibitors targeting B-Raf, B-RafV600E and VEGFR-2” (Bioorg Med Chem, 2018)
